Results published in PMC8129133, “Polymer-free corticosteroid dimer implants for controlled and sustained drug delivery” (Nature Communications, 2021).
Values joined by “and” are separate entries in the source; they are usually repeats but may differ in a detail not shown here. Identical values can stand only once. Blank lines part the entries; values can stand above or below the compound they belong to.

Experiment: In vitro release
Assay type: physicochemical
Conditions: for Cumulative Pred Release: Fig 5a pellet 1x1 mm; for Cumulative Pred Release (%): Fig 5a pellet; for Cumulative SM Release (%), avg / Cumulative SM Release (ng), avg: Fig 6c
Protocol: Pellets for release studies. Crystalline drug dimers were weighed on a stainless steel coupon. In the case of blends with a second drug, the dimer and drug were mixed at the desired mass ratio with mortar and pestle prior to weighing. Samples were transferred to a heat press (Carver Laboratory Press). A PTFE mold containing an array of 1 mm diameter holes of 1 mm depth was placed on top of the melt, and pressure was applied for 2 min. Molded pellets were cooled to room temperature and punched out of the mold, yielding a pellet of 1 mm height × 1 mm diameter.
Release studies were carried out using different media, including PBS (pH 7.4, Gibco), 100% FBS (Sigma, F1051), 1% FBS in PBS pH 7.4, and 3.6% BSA (Sigma, A7906) in PBS (pH 7.4, Gibco). […] Samples were incubated in release medium at 37 °C under constant agitation on an orbital shaker at 115 rpm (VWR). At designated timepoints, sampling was performed by complete removal of medium and replenishment with fresh buffer. Sampling timepoints included 24 h and then every 3–4 days thereafter. For PBS release conditions, samples were analyzed directly. For samples with protein (100% FBS, 1% FBS, 3.6% BSA), protein was precipitated by addition of acetonitrile. Samples were vortexed and centrifuged to separate extracted drug from precipitated protein. The supernatant was then analyzed for drug concentration by HPLC.

[1] = Fig 6a heterodimer pellet, 4 ml PBS, Day 1, samples and avg
[2] = Fig 6a heterodimer pellet, 4 ml PBS, Day 1, samples and avg, mean
[3] = Fig 6a heterodimer pellet, 4 ml PBS, Day 5, samples and avg
[4] = Fig 6a heterodimer pellet, 4 ml PBS, Day 5, samples and avg, mean
[5] = Fig 6a heterodimer pellet, 4 ml PBS, Day 7, samples and avg
[6] = Fig 6a heterodimer pellet, 4 ml PBS, Day 7, samples and avg, mean
[7] = Fig 6a heterodimer pellet, 4 ml PBS, Day 11, samples and avg
[8] = Fig 6a heterodimer pellet, 4 ml PBS, Day 11, samples and avg, mean
[9] = Fig 6a heterodimer pellet, 4 ml PBS, Day 14, samples and avg
[10] = Fig 6a heterodimer pellet, 4 ml PBS, Day 14, samples and avg, mean
[11] = Fig 6a heterodimer pellet, PBS, Day 1, avg
[12] = Fig 6a heterodimer pellet, PBS, Day 5, avg
[13] = Fig 6a heterodimer pellet, PBS, Day 7, avg
[14] = Fig 6a heterodimer pellet, PBS, Day 11, avg
[15] = Fig 6a heterodimer pellet, PBS, Day 14, avg

SMILES: CC12CCC(=O)C=C1CCC1C2C(O)CC2(C)C1CCC2(O)C(=O)COC(=O)OCCOCCOCCOC(=O)OCC(=O)C1(O)CCC2C3CCC4=CC(=O)CCC4(C)C3C(O)CC21C (stereo not drawn) [HC-TEG-HC]
Cumulative HC Release (Fig 5c pellet 1x1 mm, 4 ml PBS, Day 1, samples and avg): 3582.46 ng and 3140.26 ng and 2450.67 ng
Cumulative HC Release (Fig 5c pellet 1x1 mm, 4 ml PBS, Day 1, samples and avg, mean): 3057.80 ng
Cumulative HC Release (Fig 5c pellet 1x1 mm, 4 ml PBS, Day 3, samples and avg): 8019.98 ng and 7816.75 ng and 5925.61 ng
Cumulative HC Release (Fig 5c pellet 1x1 mm, 4 ml PBS, Day 3, samples and avg, mean): 7254.11 ng
Cumulative HC Release (Fig 5c pellet 1x1 mm, 4 ml PBS, Day 7, samples and avg): 21489.19 ng and 20555.93 ng and 15454.82 ng
Cumulative HC Release (Fig 5c pellet 1x1 mm, 4 ml PBS, Day 7, samples and avg, mean): 19166.65 ng
Cumulative HC Release (Fig 5c pellet 1x1 mm, 4 ml PBS, Day 11, samples and avg): 36020.08 ng and 33028.17 ng and 24138.38 ng
Cumulative HC Release (Fig 5c pellet 1x1 mm, 4 ml PBS, Day 11, samples and avg, mean): 31062.21 ng
Cumulative HC Release (Fig 5c pellet 1x1 mm, 4 ml PBS, Day 14, samples and avg): 45741.74 ng and 40347.40 ng and 29842.17 ng
Cumulative HC Release (Fig 5c pellet 1x1 mm, 4 ml PBS, Day 14, samples and avg, mean): 38643.77 ng
Cumulative HC Release (%) (Fig 5c pellet, PBS, Day 1, avg): 0.51%
Cumulative HC Release (%) (Fig 5c pellet, PBS, Day 3, avg): 1.20%
Cumulative HC Release (%) (Fig 5c pellet, PBS, Day 7, avg): 3.17%
Cumulative HC Release (%) (Fig 5c pellet, PBS, Day 11, avg): 5.15%
Cumulative HC Release (%) (Fig 5c pellet, PBS, Day 14, avg): 6.40%

SMILES: CC12C=CC(=O)C=C1CCC1C2C(O)CC2(C)C1CCC2(O)C(=O)COC(=O)OCCOCCOCCOC(=O)OCC(=O)C1(O)CCC2C3CCC4=CC(=O)C=CC4(C)C3C(O)CC21C (stereo not drawn) [Pred-TEG-Pred]
Cumulative Pred Release (4 ml PBS, Day 1, samples and avg): 4849.98 ng and 3117.45 ng and 2848.01 ng
Cumulative Pred Release (4 ml PBS, Day 1, samples and avg, mean): 3605.15 ng
Cumulative Pred Release (4 ml PBS, Day 3, samples and avg): 9969.33 ng and 8304.40 ng and 8589.91 ng
Cumulative Pred Release (4 ml PBS, Day 3, samples and avg, mean): 8954.55 ng
Cumulative Pred Release (4 ml PBS, Day 7, samples and avg): 27879.94 ng and 24662.51 ng and 25461.45 ng
Cumulative Pred Release (4 ml PBS, Day 7, samples and avg, mean): 26001.30 ng
Cumulative Pred Release (4 ml PBS, Day 14, samples and avg): 55975.76 ng and 47712.14 ng and 52962.20 ng
Cumulative Pred Release (4 ml PBS, Day 14, samples and avg, mean): 52216.70 ng
Cumulative Pred Release (%) (PBS, Day 1, avg): 0.38%
Cumulative Pred Release (%) (PBS, Day 3, avg): 0.94%
Cumulative Pred Release (%) (PBS, Day 7, avg): 2.72%
Cumulative Pred Release (%) (PBS, Day 14, avg): 5.45%

SMILES: CC1CC2C3CCC4=CC(=O)C=CC4(C)C3(F)C(O)CC2(C)C1(O)C(=O)COC(=O)OCCOCCOCCOC(=O)OCC(=O)C1(O)CCC2C3CCC4=CC(=O)CCC4(C)C3C(O)CC21C (stereo not drawn) [Dex-TEG-HC]
Cumulative Dex Release [1]: 81.55 ng and 74.59 ng and 99.31 ng
Cumulative HC Release [1]: 224.52 ng and 206.99 ng and 167.90 ng
Cumulative Dex Release [2]: 85.15 ng
Cumulative HC Release [2]: 199.80 ng
Cumulative Dex Release [3]: 2326.27 ng and 2325.49 ng and 1831.14 ng
Cumulative HC Release [3]: 2952.91 ng and 3019.31 ng and 2390.05 ng
Cumulative Dex Release [4]: 2160.97 ng
Cumulative HC Release [4]: 2787.43 ng
Cumulative Dex Release [5]: 3098.36 ng and 2980.56 ng and 2543.37 ng
Cumulative HC Release [5]: 4047.00 ng and 4113.39 ng and 3426.84 ng
Cumulative Dex Release [6]: 2874.10 ng
Cumulative HC Release [6]: 3862.41 ng
Cumulative Dex Release [7]: 4911.68 ng and 4696.17 ng and 4037.68 ng
Cumulative HC Release [7]: 6283.65 ng and 6328.14 ng and 5362.18 ng
Cumulative Dex Release [8]: 4548.51 ng
Cumulative HC Release [8]: 5991.32 ng
Cumulative Dex Release [9]: 6135.25 ng and 5788.05 ng and 5026.44 ng
Cumulative HC Release [9]: 7866.10 ng and 7754.88 ng and 6681.74 ng
Cumulative Dex Release [10]: 5649.91 ng
Cumulative HC Release [10]: 7434.24 ng
Cumulative Dex Release (%) [11]: 0.0441%
Cumulative HC Release (%) [11]: 0.11%
Cumulative Dex Release (%) [12]: 1.12%
Cumulative HC Release (%) [12]: 1.51%
Cumulative Dex Release (%) [13]: 1.49%
Cumulative HC Release (%) [13]: 2.09%
Cumulative Dex Release (%) [14]: 2.35%
Cumulative HC Release (%) [14]: 3.25%
Cumulative Dex Release (%) [15]: 2.92%
Cumulative HC Release (%) [15]: 4.03%

Second part, led by results:

Cumulative Dex Release (Fig 5g pellet 1x1 mm, 2 ml FBS, Day 3, samples and avg): 5606.66 ng and 6179.38 ng and 5887.12 ng
Cumulative Dex Release (Fig 5g pellet 1x1 mm, 2 ml FBS, Day 3, samples and avg, mean): 5891.06 ng
Cumulative Dex Release (Fig 5g pellet 1x1 mm, 2 ml FBS, Day 7, samples and avg (Dex-Hex-Dex), mean): 15650.99 ng
Cumulative Dex Release (Fig 5g pellet 1x1 mm, 2 ml FBS, Day 10, samples and avg, mean): 22053.69 ng
Cumulative Dex Release (Fig 5g pellet 1x1 mm, 2 ml FBS, Day 14, samples and avg (Dex-Hex-Dex), mean): 34050.91 ng
Cumulative Dex Release (%) (Fig 5g pellet, FBS, Day 3, avg): 0.42%
Cumulative Dex Release (%) (Fig 5g pellet, FBS, Day 7, avg (Dex-Hex-Dex)): 1.13%
Cumulative Dex Release (%) (Fig 5g pellet, FBS, Day 10, avg): 1.59%
Cumulative Dex Release (%) (Fig 5g pellet, FBS, Day 14, avg (Dex-Hex-Dex)): 2.45%
SMILES: CC1CC2C3CCC4=CC(=O)C=CC4(C)C3(F)C(O)CC2(C)C1(O)C(=O)COC(=O)OCCCCCCOC(=O)OCC(=O)C1(O)C(C)CC2C3CCC4=CC(=O)C=CC4(C)C3(F)C(O)CC21C (stereo not drawn) [Dex-Hex-Dex]
Cumulative Dex Release (Fig 5g pellet 1x1 mm, 2 ml FBS, Day 7, samples and avg (Dex-Hex-Dex)): 14987.41 ng and 15994.59 ng and 15970.98 ng
Cumulative Dex Release (Fig 5g pellet 1x1 mm, 2 ml FBS, Day 10, samples and avg): 21287.07 ng and 22357.19 ng and 22516.81 ng
Cumulative Dex Release (Fig 5g pellet 1x1 mm, 2 ml FBS, Day 14, samples and avg (Dex-Hex-Dex)): 32738.37 ng and 34997.20 ng and 34417.18 ng

Cumulative SM Release (%), avg (Day 1, avg): 3.88%
Cumulative SM Release (ng), avg (Day 1, avg): 5838.79 ng
Cumulative SM Release (%), avg (Day 3, avg): 5.66%
Cumulative SM Release (ng), avg (Day 3, avg): 8518.35 ng
Cumulative SM Release (%), avg (Day 8, avg): 6.76%
Cumulative SM Release (ng), avg (Day 8, avg): 10163.91 ng
Cumulative SM Release (%), avg (Day 10, avg): 7.42%
Cumulative SM Release (%), avg (Day 14, avg): 8.14%
Cumulative SM Release (ng), avg (Day 14, avg): 12242.96 ng
SMILES: CCN(CC)CCNC(=O)c1c(C)[nH]c(/C=C2\C(=O)Nc3ccc(F)cc32)c1C [sunitinib malate, reference compound]
